# Experimental data taken from patent US20260355199A1, “COMPOSITIONS AND METHODS FOR TREATING OR PREVENTING NONALCOHOLIC STEATOHEPATITIS (NASH), ANOREXIA, DEPRESSION, ENDOMETRIOSIS, AND OTHER DISEASES OR DISORDERS” (priority 2022, published 2026).
# Entries after “also recorded” stand apart in the source; their conditions may differ.
# Experiments:
# estrogen receptor = conditions: cited from earlier work
# TET3 and CD163 [1] = test: TET3 expression in mouse peritoneal macrophages; type: cell-based; conditions: wild-type mouse peritoneal macrophages
# Protocol: Peritoneal macrophages were collected from the peritoneal cavity of WT or Mye-Tet3 ko mice by injecting 10 mL of PBS followed by gentle abdominal massaging for 5 min. Cells were pelleted by centrifugation at 1500×g at 4 °C for 8 min. To remove red blood cells, cells were resuspended in […] (Biolegend, 420302, diluted to 1×) and allowed to stand for 5 min, followed by addition of PBS to stop the reaction and twice wash with PBS by centrifugation. Macrophages were enriched by plating cells in RPMI 1640 supplemented with 10% FBS and 1% Anti-Anti for 2 h at 37 °C in a 5% humidified CO2 tissue culture incubator. Non-adherent cells were then removed with three PBS washes.
# After wash in cold PBS, adherent cells were fixed with 4% paraformaldehyde in PBS for 15 min and permeabilized with 0.4% TritonX-100 for 15 min. Cells were blocked in 5% donkey serum/PBS-T at RT for 30 min and quickly washed once with PBS-T before antibody incubation. […] Cells were covered with antifade mounting medium with DAPI (Vector laboratories, H-2000), scoped using a Keyence BZ-X700 fluorescence microscope.
# TET3 and CD163 [2] = test: TET3 expression and TET3/CD163 double-positive cells in human MDMs; type: cell-based; conditions: for TET3 expression: TGF-β1 10 ng/ml or MCP1 200 ng/ml; for number of TET3/CD163 double-positive cells: TGF-β1 10 ng/ml, 48 h
# Protocol: To prepare CM-HSC and CM-Endo, LX-2 and human endometriosis cells were seeded in 24-well plates (2.5×10^5 cells/well) with their respective growth media and allowed to grow to ~50% confluency. Cells were then washed with PBS and incubated with fresh growth media (500 μl/well) for an additional 24 h. Cell supernatant (CM-HSC/CM-Endo) was collected and immediately used to treat MDMs after 1:1 dilution with their respective growth media. In the control group, only respective growth media were used.
# After wash in cold PBS, adherent cells were fixed with 4% paraformaldehyde in PBS for 15 min and permeabilized with 0.4% TritonX-100 for 15 min. Cells were blocked in 5% donkey serum/PBS-T at RT for 30 min and quickly washed once with PBS-T before antibody incubation. Primary antibodies were diluted in 2% donkey serum/PBS-T. For CD163/TET3 double staining, cells were incubated with anti-TET3 (GeneTex, GTX121453, diluted at 1:400 for MDMs; Millipore Sigma, ABE290, diluted at 1:500 for mouse peritoneal macrophages) and anti-CD163 (Abcam, ab156769, diluted at 1:400 for MDMs; Santa Cruz Biotechnology, sc-58965, diluted at 1:200 for peritoneal macrophages) overnight at 4 °C. The next day, cells were washed 3 times with PBS-T and incubated in 0.4% Triton X-100/PBS with donkey anti-Rabbit IgG Fluor 594 (Invitrogen, A-21207, diluted at 1:500) and goat anti-Mouse lgG Fluor 488 (Invitrogen, A-11029, diluted at 1:500) for 1 h at RT. Cells were covered with antifade mounting medium with DAPI (Vector laboratories, H-2000), scoped using a Keyence BZ-X700 fluorescence microscope.
# Total RNAs were extracted from cells using PureLink RNA Mini Kit. 0.5-1 μg total RNA was reverse transcribed to cDNA in a reaction volume of 20 μL using PrimeScript RT Reagent Kit. Real-time quantitative PCR was performed in a 15 μL reaction volume containing 0.5-1 μL of cDNA using SsoAdvanced Universal SYBR Green Supermix in a Bio-Rad iCycler. Gene expression levels were normalized against RPLP0.
# IL-1β = conditions: phase III clinical trial; cited from earlier work
# hM4Di = test: Chemogenetic inhibition of AgRP neurons with C21; type: in vivo, mouse; conditions: C21 0.5 mg/kg by osmotic pump, TET3 knockdown mice
# From the text: To determine the relevance of activated AgRP neurons from TET3 knockdown, the chemogenetic tool of designer receptors exclusively activated by designer drugs (DREADDs) was used. AAV-sgTet3 was co-injected with an AAV containing a Cre-dependent hM4Di-mCherry transgene (AAV-hM4Di) (Krashes, M. J. et al., 2011, Journal of Clinical Investigations, 121:1424-1428) bilaterally into the ARC of Cas9+ mice, followed by implantation of an osmotic pump to infuse DREADD agonist 21 (C21) (Thompson, K. J. et al., 2018, ACS Pharmacology & Translational Science, 1:61-72) or saline (FIG. 9K). AgRP neuron-specific expression of hM4Di was confirmed by immunofluorescence (FIG. 11).
# Three days after bilateral ARC co-injection with AAV-sgTet3 and AAV-h4MDi, a mini-osmotic pump (model 1007D, Alzet) was implanted subcutaneously. The osmotic pump was filled with either sterile saline solution or DREADD agonist compound 21 (C21) dihydrochloride (0.5 mg/kg, HB6124-25 mg, Hello Bio). Food intake measurement and ITT were performed at day 5 and day 9 post-injection, respectively. For food intake assays, food pellets were weighed at 10:00 each day for 3 continuous days and an average of three-day food intake was calculated.
# IL-6 receptor = conditions: rats; cited from earlier work
compound,measurement,setting,value
"CCCCN(C)C(=O)CCCCCCCCCC[C@@H]1Cc2cc(O)ccc2[C@H]2CC[C@]3(C)[C@@H](O)CC[C@H]3[C@H]12 [ICI 164,384]",estrogen receptor degradation,estrogen receptor,induces its degradation without affecting its mRNA expression
"MCP1: MCP1, also known as CCL2",TET3 expression and TET3/CD163 double-positive cells,TET3 and CD163 [1],increase TET3 expression and TET3/CD163 double-positive cells
same,TET3 expression,TET3 and CD163 [2],resulted in similar effects
"TGF-β1: purified TGF-β1 (PeproTech, 100-21)",TET3 expression and TET3/CD163 double-positive cells,TET3 and CD163 [1],increase TET3 expression and TET3/CD163 double-positive cells
same,TET3 expression,TET3 and CD163 [2],increased TET3 expression; also recorded: increased TET3 mRNA
same,TET3 expression,TET3 and CD163 [2]; listed as TGF-b1,increased TET3 expression both at mRNA and protein levels
same,number of TET3/CD163 double-positive cells,TET3 and CD163 [2],increased TET3 expression and the number of TET3/CD163 double-positive cells; also recorded: increase in the number of TET3/CD163 double-positive cells
same,number of TET3/CD163 double-positive cells,TET3 and CD163 [2]; listed as TGF-b1,increase in the number of TET3/CD163 double-positive cells
canakinumab: a human monoclonal antibody specific for IL-1β,incident NSCLC and lung cancer mortality,IL-1β,substantially reduced incident NSCLC and lung cancer mortality in a dose-dependent manner
Cl.Cl.c1ccc2c(c1)N=C(N1CCNCC1)c1ccccc1N2 [C21],hyperphagia,hM4Di,suppressed hyperphagia
same,systemic insulin resistance,hM4Di,reversed systemic insulin resistance
tocilizumab: an anti-IL-6 receptor monoclonal antibody,endometriosis burden,IL-6 receptor,significantly reduced endometriosis burden
